Series [1] has as its system Mycobacterium tuberculosis. Briefly: Antimycobacterial activity against Mycobacterium tuberculosis H37Rv assessed as bacterial growth inhibition incubated for 7 days by MABA assay. The format is functional. The note with it: 168 h, time 7 day. Background: The colour change of resazurin is a common sign of viable cells or microbes.
Series [2] is described as follows: Cytotoxicity against African green monkey vero cells assessed as reduction in cell viability. The note with it: chlorocebus sabaeus. The format is toxicity, cell-based.
Series [3] can be described thus: Clearance in CD-1 mouse at 0.6 mg/kg, iv. The format is ADME, organism-based. Conditions: in vivo.
A short description of series [4]: Volume of distribution in CD-1 mouse at 0.6 mg/kg, iv. The format is ADME, organism-based. The note with it: in vivo.
Series [5] in a line: Half life in CD-1 mouse at 0.6 mg/kg, iv. The format is ADME, organism-based. Conditions: in vivo.
Series [6] in a line: Cmax in CD-1 mouse at 5 mg/kg, po. The format is ADME, organism-based. More on the design: dose 5 mg/kg, route po. Conditions: in vivo.
Series [7] can be described thus: AUC (0-last) in CD-1 mouse at 5 mg/kg, po. The format is ADME, organism-based. Details: dose 5 mg/kg, route po. The note with it: CD-1, mouse, in vivo.
Series [8] is described as follows: Oral bioavailability in CD-1 mouse at 5 mg/kg. The format is ADME, organism-based. Conditions: CD-1, mouse, in vivo.
Series [9] is described as follows: Metabolic stability in human liver microsomes assessed as half life. The format is ADME, Microsome.
A short description of series [10]: Metabolic stability in rat liver microsomes assessed as half life. The format is ADME, Microsome. In general terms: Liver microsomes are vesicles of endoplasmic reticulum, rich in cytochrome P450 enzymes.
Series [11] can be described thus: Metabolic stability in mouse liver microsomes assessed as half life. The format is ADME, Microsome.
The subject of series [12] is Mycobacterium tuberculosis. Kind of series: Antimycobacterial activity against Mycobacterium tuberculosis H37Rv assessed as bacterial growth inhibition incubated for 10 days under hypoxic condition followed by 28 hrs incubation under normoxic condition by Low-Oxygen-Recovery Assay. The format is functional. Conditions: 264 h, time 11 day.
Series [13] addresses Voltage-gated inwardly rectifying potassium channel KCNH2 (Homo sapiens, UniProt Q12809). Kind of series: Inhibition of human ERG. The format is toxicity.
In series [14] the target is Voltage-dependent L-type calcium channel subunit alpha-1C (Homo sapiens, UniProt Q13936). Briefly: Inhibition of human Cav1.2.
The target of series [15] is T1, A-type voltage-gated potassium channel KCND3 (Homo sapiens, UniProt Q9UK17).
T1 sequence (Q9UK17 whole entry): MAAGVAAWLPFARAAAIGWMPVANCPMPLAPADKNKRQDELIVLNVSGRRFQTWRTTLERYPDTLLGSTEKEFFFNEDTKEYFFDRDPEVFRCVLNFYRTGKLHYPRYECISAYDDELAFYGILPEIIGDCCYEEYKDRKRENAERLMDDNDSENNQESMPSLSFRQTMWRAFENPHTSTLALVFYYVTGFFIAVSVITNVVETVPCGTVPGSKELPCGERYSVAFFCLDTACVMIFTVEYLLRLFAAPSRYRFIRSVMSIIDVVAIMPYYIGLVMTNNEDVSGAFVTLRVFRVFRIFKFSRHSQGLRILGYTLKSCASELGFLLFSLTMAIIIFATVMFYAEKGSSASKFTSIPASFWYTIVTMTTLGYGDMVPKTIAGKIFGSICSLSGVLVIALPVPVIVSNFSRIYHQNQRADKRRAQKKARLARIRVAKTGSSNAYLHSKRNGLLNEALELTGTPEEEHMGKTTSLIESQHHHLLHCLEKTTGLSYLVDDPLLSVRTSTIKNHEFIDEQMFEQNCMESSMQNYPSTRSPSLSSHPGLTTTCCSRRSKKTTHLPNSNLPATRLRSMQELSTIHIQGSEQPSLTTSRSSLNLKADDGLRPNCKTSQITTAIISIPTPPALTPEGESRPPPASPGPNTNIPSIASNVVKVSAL
Briefly: Inhibition of Kv4.3 (unknown origin).

Series [16] deals with Sodium channel protein type 5 subunit alpha (Homo sapiens, UniProt Q14524). Briefly: Inhibition of NaV 1.5 (unknown origin).
Series [17] in a line: Half life in Sprague-Dawley rat at 1 mg/kg, iv. The format is ADME, organism-based. The note with it: in vivo.
Series [18] can be described thus: Cmax in Sprague-Dawley rat at 4 mg/kg, po. The format is ADME, organism-based. Details: dose 4 mg/kg, route po. The note with it: in vivo.
A short description of series [19]: AUC (0-last) in Sprague-Dawley rat at 4 mg/kg, po. The note with it: in vivo. The format is ADME, organism-based.
Series [20] in a line: Half life in Beagle dog at 0.5 mg/kg, iv. The note with it: in vivo. The format is ADME, organism-based, Canis lupus familiaris.
Series [21] can be described thus: Cmax in Beagle dog at 2 mg/kg, po. The format is ADME, organism-based, Canis lupus familiaris. More on the design: dose 2 mg/kg, route po. The note with it: in vivo.
Series [22] can be described thus: AUC (0-last) in Beagle dog at 2 mg/kg, po. The format is ADME, organism-based, Canis lupus familiaris. The note with it: in vivo.

Structures are written as SMILES. In brackets after ≈: the same amount, converted by molar mass.

Sodium channel protein type 5 subunit alpha, sequence (Q14524 whole entry): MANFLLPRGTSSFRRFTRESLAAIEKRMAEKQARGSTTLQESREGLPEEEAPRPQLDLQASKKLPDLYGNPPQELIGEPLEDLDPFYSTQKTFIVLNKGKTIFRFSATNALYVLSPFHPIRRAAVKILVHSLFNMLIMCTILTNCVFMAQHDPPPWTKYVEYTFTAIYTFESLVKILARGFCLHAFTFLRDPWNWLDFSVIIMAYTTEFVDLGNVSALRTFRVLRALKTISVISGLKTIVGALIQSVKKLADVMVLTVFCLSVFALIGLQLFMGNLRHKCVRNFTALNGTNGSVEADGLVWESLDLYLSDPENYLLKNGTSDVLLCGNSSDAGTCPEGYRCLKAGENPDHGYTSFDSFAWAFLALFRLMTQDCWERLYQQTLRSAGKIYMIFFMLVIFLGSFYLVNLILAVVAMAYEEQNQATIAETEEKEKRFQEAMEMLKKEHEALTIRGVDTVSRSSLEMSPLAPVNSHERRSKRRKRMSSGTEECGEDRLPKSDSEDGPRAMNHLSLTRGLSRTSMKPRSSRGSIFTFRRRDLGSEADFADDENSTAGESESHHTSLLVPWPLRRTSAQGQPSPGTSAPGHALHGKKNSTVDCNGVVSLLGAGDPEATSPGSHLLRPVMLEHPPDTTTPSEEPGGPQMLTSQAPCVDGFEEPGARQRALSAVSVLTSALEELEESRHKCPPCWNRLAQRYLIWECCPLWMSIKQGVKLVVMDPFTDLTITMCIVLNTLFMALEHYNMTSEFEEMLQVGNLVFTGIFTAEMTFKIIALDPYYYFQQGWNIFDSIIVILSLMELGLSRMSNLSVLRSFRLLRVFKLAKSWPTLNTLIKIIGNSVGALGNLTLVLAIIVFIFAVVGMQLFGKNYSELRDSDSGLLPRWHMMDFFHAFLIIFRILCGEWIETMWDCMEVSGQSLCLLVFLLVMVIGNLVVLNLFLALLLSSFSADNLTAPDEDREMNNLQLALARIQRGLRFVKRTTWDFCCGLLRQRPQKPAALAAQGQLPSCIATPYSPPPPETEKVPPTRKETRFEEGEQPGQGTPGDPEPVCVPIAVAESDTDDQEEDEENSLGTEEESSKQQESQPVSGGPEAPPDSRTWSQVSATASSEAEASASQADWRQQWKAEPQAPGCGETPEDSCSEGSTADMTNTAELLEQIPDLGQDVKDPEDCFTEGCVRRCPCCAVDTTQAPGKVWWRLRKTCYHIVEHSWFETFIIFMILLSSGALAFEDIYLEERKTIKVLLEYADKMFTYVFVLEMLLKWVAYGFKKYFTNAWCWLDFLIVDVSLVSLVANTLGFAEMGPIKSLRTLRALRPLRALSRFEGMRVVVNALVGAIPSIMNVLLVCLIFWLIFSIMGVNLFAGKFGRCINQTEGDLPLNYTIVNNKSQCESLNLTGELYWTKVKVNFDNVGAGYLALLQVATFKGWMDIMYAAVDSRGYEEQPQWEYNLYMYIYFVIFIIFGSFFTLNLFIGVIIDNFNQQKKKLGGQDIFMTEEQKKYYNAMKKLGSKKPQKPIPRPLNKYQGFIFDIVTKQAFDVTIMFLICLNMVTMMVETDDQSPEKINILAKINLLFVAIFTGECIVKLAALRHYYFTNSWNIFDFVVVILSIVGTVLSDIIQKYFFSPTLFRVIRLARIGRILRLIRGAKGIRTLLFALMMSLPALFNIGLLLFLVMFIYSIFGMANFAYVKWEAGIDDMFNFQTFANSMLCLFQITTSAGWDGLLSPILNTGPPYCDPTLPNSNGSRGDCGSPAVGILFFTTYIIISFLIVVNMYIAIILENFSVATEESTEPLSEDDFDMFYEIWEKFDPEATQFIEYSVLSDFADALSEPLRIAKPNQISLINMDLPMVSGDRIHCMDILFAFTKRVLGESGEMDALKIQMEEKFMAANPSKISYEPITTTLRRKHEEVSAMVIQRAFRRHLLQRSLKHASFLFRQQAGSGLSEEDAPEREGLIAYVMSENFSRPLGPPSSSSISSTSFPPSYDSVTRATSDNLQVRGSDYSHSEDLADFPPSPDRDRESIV
Voltage-dependent L-type calcium channel subunit alpha-1C, sequence (Q13936 whole entry): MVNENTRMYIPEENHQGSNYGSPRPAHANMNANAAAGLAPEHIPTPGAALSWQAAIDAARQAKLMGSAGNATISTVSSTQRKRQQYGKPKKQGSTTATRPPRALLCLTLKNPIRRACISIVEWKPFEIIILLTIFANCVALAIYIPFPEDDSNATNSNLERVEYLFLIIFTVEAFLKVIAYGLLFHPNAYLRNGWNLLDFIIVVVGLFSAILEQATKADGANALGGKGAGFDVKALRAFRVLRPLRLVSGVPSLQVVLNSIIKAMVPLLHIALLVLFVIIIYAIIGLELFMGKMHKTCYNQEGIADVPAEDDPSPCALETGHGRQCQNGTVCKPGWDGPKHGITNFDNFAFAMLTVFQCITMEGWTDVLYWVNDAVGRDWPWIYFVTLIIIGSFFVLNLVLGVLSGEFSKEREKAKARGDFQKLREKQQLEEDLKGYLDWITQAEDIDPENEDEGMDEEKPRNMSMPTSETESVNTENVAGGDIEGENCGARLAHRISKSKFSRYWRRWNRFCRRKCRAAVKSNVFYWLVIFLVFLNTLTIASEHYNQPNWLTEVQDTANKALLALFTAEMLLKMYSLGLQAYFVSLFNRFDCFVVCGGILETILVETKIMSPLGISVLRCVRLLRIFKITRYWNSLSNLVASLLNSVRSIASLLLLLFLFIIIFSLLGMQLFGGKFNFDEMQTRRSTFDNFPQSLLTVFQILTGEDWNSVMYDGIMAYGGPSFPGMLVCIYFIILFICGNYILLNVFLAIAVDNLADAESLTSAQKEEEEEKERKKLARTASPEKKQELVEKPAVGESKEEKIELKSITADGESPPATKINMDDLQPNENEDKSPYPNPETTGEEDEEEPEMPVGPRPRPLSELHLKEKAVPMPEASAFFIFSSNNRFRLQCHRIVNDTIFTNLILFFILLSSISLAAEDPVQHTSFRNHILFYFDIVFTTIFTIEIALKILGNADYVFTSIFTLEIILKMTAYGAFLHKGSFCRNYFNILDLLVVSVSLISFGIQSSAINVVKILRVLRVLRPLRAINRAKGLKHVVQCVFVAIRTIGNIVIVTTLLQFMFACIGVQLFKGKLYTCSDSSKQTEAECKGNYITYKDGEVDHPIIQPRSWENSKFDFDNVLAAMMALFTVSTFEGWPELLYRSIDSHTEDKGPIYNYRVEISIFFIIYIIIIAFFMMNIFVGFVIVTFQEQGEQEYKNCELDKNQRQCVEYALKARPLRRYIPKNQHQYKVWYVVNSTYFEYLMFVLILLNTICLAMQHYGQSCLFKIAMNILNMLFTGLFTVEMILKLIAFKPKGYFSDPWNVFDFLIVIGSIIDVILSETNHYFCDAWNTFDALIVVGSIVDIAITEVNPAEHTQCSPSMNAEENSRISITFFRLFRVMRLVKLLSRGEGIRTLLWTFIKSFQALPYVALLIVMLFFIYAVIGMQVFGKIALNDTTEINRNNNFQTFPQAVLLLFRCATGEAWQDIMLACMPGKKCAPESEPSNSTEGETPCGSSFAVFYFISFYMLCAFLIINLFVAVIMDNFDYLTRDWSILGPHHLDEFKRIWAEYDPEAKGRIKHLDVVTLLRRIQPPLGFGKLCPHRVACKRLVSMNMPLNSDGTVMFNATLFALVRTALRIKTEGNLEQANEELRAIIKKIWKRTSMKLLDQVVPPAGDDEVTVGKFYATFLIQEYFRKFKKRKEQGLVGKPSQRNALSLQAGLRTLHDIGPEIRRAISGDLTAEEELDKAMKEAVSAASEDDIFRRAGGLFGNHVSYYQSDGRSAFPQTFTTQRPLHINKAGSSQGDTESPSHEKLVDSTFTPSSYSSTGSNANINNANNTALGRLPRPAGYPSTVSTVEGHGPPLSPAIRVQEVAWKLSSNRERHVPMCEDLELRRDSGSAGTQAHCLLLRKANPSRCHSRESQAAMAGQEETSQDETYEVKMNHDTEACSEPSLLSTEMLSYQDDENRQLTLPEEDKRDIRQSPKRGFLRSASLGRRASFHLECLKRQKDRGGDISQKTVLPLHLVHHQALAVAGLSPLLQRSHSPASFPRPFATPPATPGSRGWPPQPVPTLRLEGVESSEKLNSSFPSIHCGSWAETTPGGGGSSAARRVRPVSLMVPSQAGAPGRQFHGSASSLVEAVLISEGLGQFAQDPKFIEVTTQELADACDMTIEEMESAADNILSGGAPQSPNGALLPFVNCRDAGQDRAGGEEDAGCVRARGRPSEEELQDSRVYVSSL

As usually defined, the MIC is the lowest concentration that inhibits growth of the organism. By CC50 is commonly meant the concentration that lowers cell viability or growth by half. The clearance is a measure of how efficiently the substance is removed, as volume per time. Usually Vd stands for a proportionality between amount in the body and measured concentration, not a real space. The half-life is how long it takes for the measured level to halve. In general, Cmax refers to the maximum level reached in the sampled fluid or tissue. What is called AUC(0-t) is exposure summed from dosing to a finite time, without extrapolation to infinity. For orientation: bioavailability means the share of a dose that reaches the circulation, judged against a reference dose that is usually intravenous. As for `C[C@]1(CN2Cc3nc(-c4ccc(F)cn4)sc3C2)Cn2cc([N+](=O)[O-])nc2O1`, the minimal inhibitory concentration (MIC) in series [1] stood at 0.03 µg/mL (≈ 0.0746 µM). The CC50 in [2] was above 32 µg/mL. This compound also showed a clearance in series [3] of 12.7 mL/min/kg. Further, in series [4], the distribution volume (Vd) was determined as 2.02 L/kg. The compound also gave a half-life in series [5] of 103 min. The compound further gave a Cmax in series [6] of 385 ng/mL. In addition, the AUC(0-t) in series [7] turned out to be 2920 ng·h/mL. This compound registered a bioavailability in series [8] of 24.5%.
`C[C@]1(CN2CCc3nc(-c4ccc(F)cc4)sc3CC2)Cn2cc([N+](=O)[O-])nc2O1`: the half-life in [9] turned out to be 15 min; in series [10], 8 min; in series [11] it was 7 min. The MIC is 0.03 µg/mL (≈ 0.0699 µM) in series [1] and above 8 µg/mL in series [12]. Further, the 50% cytotoxic concentration (CC50) in series [2] is above 32 µg/mL.
For orientation: IC50 means the concentration at which inhibition is half-maximal. `C[C@]1(CN2Cc3nc(-c4ccc(F)cc4)sc3C2)Cn2cc([N+](=O)[O-])nc2O1`: the half-maximal inhibitory concentration (IC50) in series [13] is 1.69 µM; in series [14] it was 13.3 µM; in series [15], above 40 µM; in series [16], 12.9 µM. Besides, the half-life in [17] is 279 min; in series [20] it was 918 min. Besides, the figures for the Cmax in [18] and in series [21] were 57.9 nM and 5.82 nM, respectively. Besides, the AUClast was found to be 574 ng·h in [19] and 166 ng·h in series [22].
On to `C[C@]1(CN2Cc3nc(-c4ccc(F)cc4)oc3C2)Cn2cc([N+](=O)[O-])nc2O1`, for which the half-life was determined as 59 min in series [9], 39 min in series [10] and 43 min in series [11]. For the same compound, the MIC in series [1] was 0.021 µg/mL (≈ 0.0545 µM). Also, in series [2], the CC50 is above 32 µg/mL.
As for `C[C@]1(CN2Cc3nc(-c4ncc(F)cc4F)sc3C2)Cn2cc([N+](=O)[O-])nc2O1`, the MIC in series [1] amounted to 0.06 µg/mL (≈ 0.143 µM). Further, in [2], the CC50 is above 32 µg/mL. The clearance in [3] amounted to 13.8 mL/min/kg. Also, the Vd in series [4] turned out to be 1.57 L/kg. This compound also showed a half-life in series [5] of 84 min. Also, the highest level in series [6] (Cmax) was 1010 ng/mL. Besides, the AUC(0-t) in series [7] was determined as 4990 ng·h/mL. The compound further displayed a bioavailability in series [8] of 57.9%.
